Laboratory results taken from publication PMC5623949, “Exploiting the 2-Amino-1,3,4-thiadiazole Scaffold To Inhibit Trypanosoma brucei Pteridine Reductase in Support of Early-Stage Drug Discovery” (ACS Omega, 2017).
Like-named read-outs stand apart in the source and are kept apart here.

What was measured:
[1] = tested on: T. b. brucei Lister 427 bloodstream forms; test: In vitro activity against T. brucei (HTS SYBR Green I growth inhibition assay); assay type: cell-based, Trypanosoma brucei brucei; details: 50 μM, standard deviation within ±10% of the value; for inhibition at 50 µM: Trypanosoma brucei, read-out: % Inhibition T. brucei at 50 μM
TbDHFR = target: T1, TbDHFR (Trypanosoma brucei brucei, UniProt Q27783); test: TbDHFR enzyme inhibition (spectrophotometric); assay type: biochemical; details: 100 μM; Table S3
T1 construct: made in house
T1 sequence (Q27783 whole entry): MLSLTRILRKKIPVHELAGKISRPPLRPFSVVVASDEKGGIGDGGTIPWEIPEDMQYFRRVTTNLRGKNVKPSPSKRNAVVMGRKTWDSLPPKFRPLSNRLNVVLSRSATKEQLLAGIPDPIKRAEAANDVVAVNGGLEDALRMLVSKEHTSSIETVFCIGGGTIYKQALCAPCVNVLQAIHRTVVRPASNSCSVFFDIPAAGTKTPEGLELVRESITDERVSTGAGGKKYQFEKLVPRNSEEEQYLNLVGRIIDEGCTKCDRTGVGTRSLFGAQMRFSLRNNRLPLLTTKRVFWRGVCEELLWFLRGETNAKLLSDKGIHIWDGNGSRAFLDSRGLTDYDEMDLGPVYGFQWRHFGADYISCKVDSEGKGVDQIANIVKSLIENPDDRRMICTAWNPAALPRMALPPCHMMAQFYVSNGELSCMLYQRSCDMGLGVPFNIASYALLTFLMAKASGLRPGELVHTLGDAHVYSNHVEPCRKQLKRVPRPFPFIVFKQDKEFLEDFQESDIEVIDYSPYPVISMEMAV

hERG [2] = target: T2, hERG (Homo sapiens, UniProt Q12809); design: hERG inhibition liability assay
T2 construct: gene KCNH2
T2 sequence (Q12809 whole entry): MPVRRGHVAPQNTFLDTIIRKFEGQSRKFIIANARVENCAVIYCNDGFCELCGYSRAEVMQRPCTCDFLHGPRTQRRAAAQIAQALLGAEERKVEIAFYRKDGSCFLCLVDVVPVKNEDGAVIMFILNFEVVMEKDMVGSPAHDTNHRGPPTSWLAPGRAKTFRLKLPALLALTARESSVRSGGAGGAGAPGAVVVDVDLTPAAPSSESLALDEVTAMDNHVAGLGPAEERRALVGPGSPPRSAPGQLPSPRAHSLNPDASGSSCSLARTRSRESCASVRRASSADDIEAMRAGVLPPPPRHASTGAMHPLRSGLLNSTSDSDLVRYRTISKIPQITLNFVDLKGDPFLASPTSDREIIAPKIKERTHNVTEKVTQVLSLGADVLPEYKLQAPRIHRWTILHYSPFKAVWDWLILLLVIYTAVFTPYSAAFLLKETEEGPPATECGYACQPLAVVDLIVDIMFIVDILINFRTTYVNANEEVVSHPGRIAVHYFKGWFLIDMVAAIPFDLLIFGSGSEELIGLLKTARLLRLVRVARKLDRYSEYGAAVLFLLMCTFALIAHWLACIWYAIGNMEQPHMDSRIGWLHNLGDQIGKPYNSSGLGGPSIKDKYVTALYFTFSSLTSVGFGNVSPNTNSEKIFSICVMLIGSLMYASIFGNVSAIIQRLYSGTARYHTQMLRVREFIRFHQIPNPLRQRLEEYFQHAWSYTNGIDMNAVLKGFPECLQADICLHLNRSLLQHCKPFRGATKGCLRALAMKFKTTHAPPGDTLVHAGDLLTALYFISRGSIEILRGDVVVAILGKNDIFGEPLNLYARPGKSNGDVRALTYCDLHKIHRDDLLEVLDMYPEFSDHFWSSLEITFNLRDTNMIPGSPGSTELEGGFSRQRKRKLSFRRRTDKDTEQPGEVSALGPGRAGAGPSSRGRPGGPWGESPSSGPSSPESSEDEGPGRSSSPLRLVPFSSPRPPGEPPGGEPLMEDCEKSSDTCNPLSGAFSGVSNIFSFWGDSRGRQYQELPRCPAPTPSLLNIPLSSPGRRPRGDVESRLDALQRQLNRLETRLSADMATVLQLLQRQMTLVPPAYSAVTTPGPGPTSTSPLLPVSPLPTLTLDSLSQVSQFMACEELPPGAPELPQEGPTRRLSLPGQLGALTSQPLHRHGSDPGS

CYP2D6 = CYP2D6 (Homo sapiens, UniProt P10635); test: in vitro; design: cytochrome P450 isoform inhibition liability assay
Sequence of CYP2D6 (P10635 whole entry, canonical isoform): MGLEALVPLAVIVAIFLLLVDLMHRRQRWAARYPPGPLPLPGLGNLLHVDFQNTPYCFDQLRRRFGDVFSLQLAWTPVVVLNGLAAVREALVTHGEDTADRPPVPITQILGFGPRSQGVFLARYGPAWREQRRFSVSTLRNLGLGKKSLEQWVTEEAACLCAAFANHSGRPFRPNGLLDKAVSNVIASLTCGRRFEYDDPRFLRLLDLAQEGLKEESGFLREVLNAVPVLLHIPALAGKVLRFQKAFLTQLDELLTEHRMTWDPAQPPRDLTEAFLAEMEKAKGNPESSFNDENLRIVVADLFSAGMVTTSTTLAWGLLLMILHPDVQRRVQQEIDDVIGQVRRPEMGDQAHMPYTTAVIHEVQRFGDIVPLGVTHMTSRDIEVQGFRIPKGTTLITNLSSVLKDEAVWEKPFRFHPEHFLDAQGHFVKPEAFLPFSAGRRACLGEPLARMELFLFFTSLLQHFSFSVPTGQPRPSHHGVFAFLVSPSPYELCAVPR

CYP3A4 = CYP3A4 (Homo sapiens, UniProt P08684); test: in vitro; design: cytochrome P450 isoform inhibition liability assay
Sequence of CYP3A4 (P08684 whole entry, canonical isoform): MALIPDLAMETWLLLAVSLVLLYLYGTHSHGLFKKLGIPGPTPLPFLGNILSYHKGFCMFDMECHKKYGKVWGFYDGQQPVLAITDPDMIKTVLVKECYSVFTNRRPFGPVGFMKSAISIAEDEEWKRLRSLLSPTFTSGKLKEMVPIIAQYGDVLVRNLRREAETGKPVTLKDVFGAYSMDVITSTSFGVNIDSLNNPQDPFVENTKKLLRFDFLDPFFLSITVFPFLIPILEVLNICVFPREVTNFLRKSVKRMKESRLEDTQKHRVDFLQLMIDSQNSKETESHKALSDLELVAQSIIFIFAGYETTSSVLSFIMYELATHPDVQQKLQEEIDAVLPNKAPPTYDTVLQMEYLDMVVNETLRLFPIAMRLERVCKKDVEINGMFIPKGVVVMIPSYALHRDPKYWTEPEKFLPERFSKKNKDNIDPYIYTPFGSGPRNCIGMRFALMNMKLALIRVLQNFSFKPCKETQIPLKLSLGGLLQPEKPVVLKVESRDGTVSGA

hDHFR = target: T3, hDHFR (Homo sapiens, UniProt P00374); test: biochemical; design: human DHFR enzyme inhibition
T3 construct: gene DHFR
T3 sequence (P00374 1-187): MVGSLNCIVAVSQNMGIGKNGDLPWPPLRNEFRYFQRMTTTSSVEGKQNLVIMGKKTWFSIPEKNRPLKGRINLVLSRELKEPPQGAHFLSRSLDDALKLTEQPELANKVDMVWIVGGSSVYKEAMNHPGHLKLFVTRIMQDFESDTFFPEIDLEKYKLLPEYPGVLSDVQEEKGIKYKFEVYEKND
Outline: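 hDHFR inhibition tested at a single concentration of 100 μM, expressed as percent inhibitory activity.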

786-O [3] = test: cells; design: mitochondrial toxicity in 786-O renal carcinoma cells; details: Homo sapiens, 786-0; read-out: mitochondrial toxicity [IC50 uM]
in vitro [4] = test: in vitro; design: cytotoxicity, per cent cell growth of A549 cells; details: human, a549 cells; read-out: % cell growth A549 at 10uM
hERG [5] = target: T2, hERG; design: hERG channel inhibition
Experimental: (§1) Independent of the effect of any antiparasitic potential of compounds, they were evaluated using a panel of early-toxicity assays comprising cytotoxicity (A549, human lung adenocarcinoma epithelial cell line and WI-38, human lung fibroblasts), mitochondrial toxicity (786-O, human renal carcinoma cell line), hERG inhibition,[31] cytochrome P450 inhibition (CYP1A2, CYP2C9, CYP2C19, CYP2D6, and CYP3A4),[31] and Aurora B kinase inhibition. […] For the two compounds active against TbPTR1 (4m and 4o), IC50 against hERG, cytochrome P450, and mitochondrial toxicity were determined (reported in Supporting Information). We observed that the dose of compounds 4m, 4o, 4c, and 3k was 4 μM in the potentiation assays. […] In the case of hERG, CYP2D6, CYP2A9, CYP2C19, and mitochondrial toxicity, there is a selectivity index of around 3–4 fold, thus showing an acceptable profile.

786-O [6] = test: cells; design: mitochondrial toxicity in 786-O cells; details: Homo sapiens, 786-0
Experimental: as §1

in vitro [7] = test: in vitro; design: cytotoxicity, per cent cell growth of WI-38 fibroblasts; details: human, wi-38 cells; read-out: % cell growth W1-38 at 10uM

SMILES | % Inhibition T. brucei at 50 μM [1] | inhibition at 50 µM [1] [%] | inhibitory activity against TbDHFR (TbDHFR) | IC50 (hERG [2]) [µM] | IC50 (CYP2D6) [µM] | IC50 (CYP3A4) [µM] | inhibition at 100 µM (hDHFR) [%] | IC50 (786-O [3]) [µM] | viability at 10 µM (in vitro [4]) [%] | inhibition at 10 µM (hERG [5]) [%] | inhibition at 10 µM (786-O [6]) [%] | viability at 10 µM (in vitro [7]) [%]
Nc1nnc(NCCc2cccs2)s1 [4o, N2G(2G(thiophenG2Gyl)ethyl)G1,3,4GthiadiazoleG2,5Gdiamine] | poor antiparasitic activity | 37.9 | neither 4m nor 4o is able to inhibit | 3.1 | 12.4 | 34.4 | 24 | 17.8 | 105 ± 11.4 | 95.4 ± 8 | 0.5 ± 4.8 | 96.7 ± 13.5
Nc1nnc(NCc2ccc(-c3ccccc3)cc2)s1 [4m] | – | 6.6 | neither 4m nor 4o is able to inhibit | 3.6 | 11.5 | 12.1 | 40 | > 100 | 112 ± 9.5 | 52.6 ± 11.6 | -2.5 ± 6.1 | 95.9 ± 18.6
